Structures are written as SMILES.

By inhibition is commonly meant the share of the control response that was lost under treatment. A word on the IC50: it is the midpoint of a concentration-inhibition curve. A lower IC50 goes with greater potency.

The target in test [1] is Vascular endothelial growth factor receptor 2 (Homo sapiens) (UniProt P35968). In words: Inhibition of Vascular endothelial growth factor receptor 2 (VEGF-KDR) at 10 uM.
Test [2] concerns the target Epidermal growth factor receptor (Homo sapiens) (UniProt P00533). In words: Inhibition of Epidermal growth factor receptor at 10 uM.
For test [3], the target named is Glycogen synthase kinase-3 (Homo sapiens, UniProt P49840+P49841). In words: inhibition of Glycogen synthase kinase-3. The test is classed as protein assay.
The target of test [4] is Cyclin-dependent kinase 4 (Homo sapiens, UniProt P11802). In words: Inhibition of cyclin D1 activated Cyclin-dependent kinase 4 (CDK4).
Cyclin-dependent kinase 4, sequence (P11802 whole entry): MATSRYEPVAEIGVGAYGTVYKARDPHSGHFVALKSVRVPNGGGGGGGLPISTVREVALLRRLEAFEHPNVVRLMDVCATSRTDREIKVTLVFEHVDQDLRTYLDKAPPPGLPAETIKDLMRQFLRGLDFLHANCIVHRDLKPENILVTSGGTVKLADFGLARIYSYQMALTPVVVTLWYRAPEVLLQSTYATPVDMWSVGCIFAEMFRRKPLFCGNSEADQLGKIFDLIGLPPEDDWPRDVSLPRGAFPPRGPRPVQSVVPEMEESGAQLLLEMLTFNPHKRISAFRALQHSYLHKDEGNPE
The target of test [5] is Cyclin-dependent kinase 1 (Homo sapiens, UniProt P06493). In words: Inhibition of cyclin B activated Cyclin-dependent kinase 1 (CDK1).
Cyclin-dependent kinase 1, sequence (P06493 whole entry): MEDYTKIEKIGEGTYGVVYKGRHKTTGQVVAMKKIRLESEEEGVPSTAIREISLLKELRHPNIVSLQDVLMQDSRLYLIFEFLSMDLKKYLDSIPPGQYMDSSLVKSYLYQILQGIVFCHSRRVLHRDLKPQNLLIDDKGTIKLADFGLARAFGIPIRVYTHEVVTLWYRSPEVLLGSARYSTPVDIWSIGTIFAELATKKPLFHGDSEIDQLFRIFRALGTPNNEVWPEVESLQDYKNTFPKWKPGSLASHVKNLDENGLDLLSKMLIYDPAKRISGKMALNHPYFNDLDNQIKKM
Another test deals with HCT-116. Nature of the test: Inhibition of HCT116 (transformed colon) cell proliferation. The following applies: Homo sapiens. Type of test: functional, cell-based.
The target in test [6] is Cyclin-dependent kinase 2 (Homo sapiens, UniProt P24941). In words: Inhibition of cyclin A activated Cyclin-dependent kinase 2 (CDK2).
Test [7] concerns the target T1, Protein kinase C alpha type (Homo sapiens, UniProt P17252). Nature of the test: Inhibition of Protein kinase C alpha at 10 uM.
The target in test [8] is T1, Protein kinase C alpha type. Nature of the test: Inhibition of Protein kinase C alpha.

Epidermal growth factor receptor (Homo sapiens), sequence (P00533 whole entry): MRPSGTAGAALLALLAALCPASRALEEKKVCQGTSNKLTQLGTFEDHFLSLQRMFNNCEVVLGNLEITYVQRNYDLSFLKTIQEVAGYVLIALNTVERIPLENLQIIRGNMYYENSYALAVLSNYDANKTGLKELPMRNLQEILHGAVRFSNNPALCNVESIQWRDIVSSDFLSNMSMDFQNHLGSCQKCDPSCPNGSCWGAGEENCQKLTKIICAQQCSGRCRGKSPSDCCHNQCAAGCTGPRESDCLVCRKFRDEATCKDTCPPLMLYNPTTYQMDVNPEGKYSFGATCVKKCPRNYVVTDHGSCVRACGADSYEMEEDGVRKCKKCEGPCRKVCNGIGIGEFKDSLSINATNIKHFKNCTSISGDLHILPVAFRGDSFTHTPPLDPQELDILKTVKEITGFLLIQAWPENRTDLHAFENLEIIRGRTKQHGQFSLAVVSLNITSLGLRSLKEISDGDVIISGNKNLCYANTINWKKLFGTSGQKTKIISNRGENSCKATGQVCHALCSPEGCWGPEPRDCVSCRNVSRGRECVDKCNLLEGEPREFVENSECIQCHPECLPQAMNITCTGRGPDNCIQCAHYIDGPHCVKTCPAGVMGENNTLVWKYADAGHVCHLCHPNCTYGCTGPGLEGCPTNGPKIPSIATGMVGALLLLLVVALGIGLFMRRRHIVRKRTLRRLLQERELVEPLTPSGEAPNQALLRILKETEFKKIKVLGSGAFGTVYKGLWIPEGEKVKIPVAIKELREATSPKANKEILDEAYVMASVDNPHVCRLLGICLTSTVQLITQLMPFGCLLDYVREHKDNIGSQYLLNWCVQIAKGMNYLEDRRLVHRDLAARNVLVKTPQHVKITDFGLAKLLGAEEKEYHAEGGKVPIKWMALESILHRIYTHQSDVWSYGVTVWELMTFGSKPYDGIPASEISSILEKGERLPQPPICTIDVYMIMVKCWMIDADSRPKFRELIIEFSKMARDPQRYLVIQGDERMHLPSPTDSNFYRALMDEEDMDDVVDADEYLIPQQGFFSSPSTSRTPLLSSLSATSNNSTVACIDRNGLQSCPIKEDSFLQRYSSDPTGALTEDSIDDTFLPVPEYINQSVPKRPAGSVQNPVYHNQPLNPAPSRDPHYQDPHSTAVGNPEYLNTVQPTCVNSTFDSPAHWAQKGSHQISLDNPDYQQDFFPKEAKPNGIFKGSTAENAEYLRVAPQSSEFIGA
Vascular endothelial growth factor receptor 2 (Homo sapiens), sequence (P35968 whole entry): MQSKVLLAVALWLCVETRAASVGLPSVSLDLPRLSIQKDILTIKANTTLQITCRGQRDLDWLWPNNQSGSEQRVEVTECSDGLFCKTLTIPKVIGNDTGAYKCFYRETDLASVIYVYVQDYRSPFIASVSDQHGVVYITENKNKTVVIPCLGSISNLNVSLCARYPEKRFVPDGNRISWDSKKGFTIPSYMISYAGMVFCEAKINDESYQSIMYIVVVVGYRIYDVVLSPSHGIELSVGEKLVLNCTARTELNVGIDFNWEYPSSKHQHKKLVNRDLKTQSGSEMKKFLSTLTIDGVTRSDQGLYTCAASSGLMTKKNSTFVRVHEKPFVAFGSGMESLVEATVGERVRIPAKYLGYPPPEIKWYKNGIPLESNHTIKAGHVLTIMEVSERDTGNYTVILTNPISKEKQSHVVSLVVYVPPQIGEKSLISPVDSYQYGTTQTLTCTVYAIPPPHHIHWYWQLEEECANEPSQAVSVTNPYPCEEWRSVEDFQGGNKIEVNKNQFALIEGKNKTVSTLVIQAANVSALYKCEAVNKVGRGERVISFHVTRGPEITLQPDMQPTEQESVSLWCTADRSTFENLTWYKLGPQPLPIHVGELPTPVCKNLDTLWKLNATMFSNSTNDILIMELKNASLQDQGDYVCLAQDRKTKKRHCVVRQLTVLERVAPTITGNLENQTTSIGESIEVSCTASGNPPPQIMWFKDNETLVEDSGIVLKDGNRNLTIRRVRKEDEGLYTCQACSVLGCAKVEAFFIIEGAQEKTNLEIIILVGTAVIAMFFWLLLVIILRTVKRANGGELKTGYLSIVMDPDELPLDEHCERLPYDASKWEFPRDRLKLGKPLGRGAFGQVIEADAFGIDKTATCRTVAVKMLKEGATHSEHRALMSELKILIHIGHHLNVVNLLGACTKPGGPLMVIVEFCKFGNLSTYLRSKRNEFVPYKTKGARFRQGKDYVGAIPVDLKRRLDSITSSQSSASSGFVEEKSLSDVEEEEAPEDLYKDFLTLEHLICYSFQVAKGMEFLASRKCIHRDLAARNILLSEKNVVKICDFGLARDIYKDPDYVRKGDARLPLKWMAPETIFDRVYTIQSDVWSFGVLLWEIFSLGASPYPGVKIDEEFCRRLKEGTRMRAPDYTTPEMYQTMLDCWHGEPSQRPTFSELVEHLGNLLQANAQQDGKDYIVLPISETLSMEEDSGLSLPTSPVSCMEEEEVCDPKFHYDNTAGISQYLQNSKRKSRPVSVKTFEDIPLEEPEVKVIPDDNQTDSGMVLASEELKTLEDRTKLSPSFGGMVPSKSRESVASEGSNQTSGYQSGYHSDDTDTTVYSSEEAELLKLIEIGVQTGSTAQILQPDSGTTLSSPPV

In the case of `CN1CCC(c2c(O)cc(O)c3c2O/C(=C\c2ccc(S(N)(=O)=O)cc2)C3=O)CC1`, the inhibition in test [1] worked out at 25%; in test [2], 36%; in [7], 42%. The IC50 in test [3] was 3.7 µM; in test [4], 1.87 µM; in test [5], 0.009 µM; in the test with HCT-116, above 50 µM; in test [6] it was 0.03 µM.

For `CN1CCC(c2c(O)cc(O)c3c2O/C(=C\c2ccccc2Cl)C3=O)CC1`, the inhibition in test [1] is 17%; in test [7], 22%. The 50% inhibitory concentration (IC50) came to 10 µM in [3]; 25.3 µM in test [4]; 0.6 µM in test [5]; 20.1 µM in the test on HCT-116; 3.97 µM in [6].

In the case of `CN1CCC(c2c(O)cc(O)c3c2O/C(=C\c2ccc([N+](=O)[O-])cc2)C3=O)CC1`, the inhibition in [1] is 37%; in [2], 43%. The half-inhibitory concentration (IC50) came to 22 µM in [8]; 4.8 µM in test [3]; 2.21 µM in test [4]; 35.6 µM with HCT-116; 0.31 µM in test [6].

Consider `CN1CCC(c2c(O)cc(O)c3c2O/C(=C\c2ccc(N4CCN(C)CC4)cc2)C3=O)CC1`, for which the values for the inhibition in test [1], in test [2] and in [7] were 25%, 29% and 21%, respectively. Besides, the IC50 in test [3] was 1.75 µM; in [4] it was 1.92 µM; in test [5], 0.8 µM; with HCT-116, 24.8 µM; in test [6] it was 2.98 µM.

Regarding `CN1CCC(c2c(O)cc(O)c3c2O/C(=C\c2ccccc2)C3=O)CC1`, the inhibition in [1] is 2%; in test [2], 38%; in test [7], 19%. Besides, the IC50 in test [3] is 4.2 µM; in test [4], 4.41 µM; in test [5], 0.11 µM; in the test on HCT-116 it was above 50 µM; in [6], 1.28 µM.

The record behind these values is ChEMBL document CHEMBL1135924, “Structure-based design and synthesis of 2-benzylidene-benzofuran-3-ones as flavopiridol mimics” (J Med Chem, 2002).
